# Data published in ChEMBL document CHEMBL3431459, “Roche carnitine palmitoyltransferase modulator screening data (supplementary data associated with the publication CHEMBL2216752)”.
# Experiments:
# [1] = SUPPLEMENTARY: Lipophilicity (log D) Determination by high-throughput shake-flask; type: physicochemical; conditions: octanol/water
# [2] = molecular target: T1, Carnitine O-palmitoyltransferase 1, muscle isoform (Homo sapiens, UniProt Q92523); test: SUPPLEMENTARY: Inhibition of Carnitine palmitoyltransferase 1, muscle isoform; parameters: species or system Muscle tissue
# T1 sequence (Q92523 whole entry): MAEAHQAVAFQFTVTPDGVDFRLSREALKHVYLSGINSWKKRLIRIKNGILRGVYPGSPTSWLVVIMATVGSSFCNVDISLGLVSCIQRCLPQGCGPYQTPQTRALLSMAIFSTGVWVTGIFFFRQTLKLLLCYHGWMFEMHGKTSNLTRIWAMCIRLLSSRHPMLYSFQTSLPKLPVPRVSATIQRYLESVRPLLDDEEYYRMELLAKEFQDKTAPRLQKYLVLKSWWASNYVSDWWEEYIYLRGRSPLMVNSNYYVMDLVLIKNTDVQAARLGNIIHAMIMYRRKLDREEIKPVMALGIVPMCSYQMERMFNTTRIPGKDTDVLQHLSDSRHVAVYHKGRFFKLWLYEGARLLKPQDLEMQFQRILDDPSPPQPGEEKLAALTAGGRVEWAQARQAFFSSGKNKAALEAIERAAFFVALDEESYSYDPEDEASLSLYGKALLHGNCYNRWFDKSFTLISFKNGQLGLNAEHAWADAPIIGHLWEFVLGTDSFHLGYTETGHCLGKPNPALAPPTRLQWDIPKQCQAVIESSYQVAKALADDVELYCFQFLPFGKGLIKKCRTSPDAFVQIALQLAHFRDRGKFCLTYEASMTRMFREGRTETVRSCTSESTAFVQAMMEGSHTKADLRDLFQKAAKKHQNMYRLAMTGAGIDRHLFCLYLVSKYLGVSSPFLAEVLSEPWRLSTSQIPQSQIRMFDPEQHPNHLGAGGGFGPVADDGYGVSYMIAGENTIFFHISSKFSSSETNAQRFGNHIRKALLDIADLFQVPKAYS
# [3] = SUPPLEMENTARY: Lyophilisation Solubility Assay (LYSA); type: physicochemical; conditions: read-out: Kinetic_solubility
# [4] = SUPPLEMENTARY: PAMPA permeability assay; type: physicochemical; conditions: read-out: Permeability
# [5] = molecular target: T2, Carnitine O-palmitoyltransferase 1, liver isoform (Homo sapiens, UniProt P50416); test: (§1) SUPPLEMENTARY: Inhibition of Carnitine palmitoyltransferase 1, liver isoform
# T2 sequence (P50416 whole entry): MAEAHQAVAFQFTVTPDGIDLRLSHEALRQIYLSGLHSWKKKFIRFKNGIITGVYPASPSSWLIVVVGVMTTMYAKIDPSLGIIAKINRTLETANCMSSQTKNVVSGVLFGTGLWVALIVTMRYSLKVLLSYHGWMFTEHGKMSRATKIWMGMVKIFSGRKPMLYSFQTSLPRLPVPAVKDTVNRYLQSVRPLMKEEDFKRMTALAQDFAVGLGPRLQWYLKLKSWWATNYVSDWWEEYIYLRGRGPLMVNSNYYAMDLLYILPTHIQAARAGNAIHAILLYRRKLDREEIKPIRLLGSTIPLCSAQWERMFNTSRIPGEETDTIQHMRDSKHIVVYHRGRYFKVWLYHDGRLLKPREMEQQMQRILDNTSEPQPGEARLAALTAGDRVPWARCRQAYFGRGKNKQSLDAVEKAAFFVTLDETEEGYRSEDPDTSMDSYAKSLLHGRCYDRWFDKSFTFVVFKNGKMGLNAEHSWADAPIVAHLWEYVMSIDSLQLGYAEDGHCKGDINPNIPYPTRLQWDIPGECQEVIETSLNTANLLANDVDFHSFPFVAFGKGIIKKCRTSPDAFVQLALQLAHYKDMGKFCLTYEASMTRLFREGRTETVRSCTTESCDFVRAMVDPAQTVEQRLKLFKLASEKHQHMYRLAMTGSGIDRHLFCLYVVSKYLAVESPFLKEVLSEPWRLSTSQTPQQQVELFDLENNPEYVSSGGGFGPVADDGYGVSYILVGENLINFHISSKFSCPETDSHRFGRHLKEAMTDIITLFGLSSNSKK
# [6] = molecular target: T3, Carnitine O-palmitoyltransferase 1, liver isoform (Rattus norvegicus, UniProt P32198); test: as §1
# T3 sequence (P32198 whole entry): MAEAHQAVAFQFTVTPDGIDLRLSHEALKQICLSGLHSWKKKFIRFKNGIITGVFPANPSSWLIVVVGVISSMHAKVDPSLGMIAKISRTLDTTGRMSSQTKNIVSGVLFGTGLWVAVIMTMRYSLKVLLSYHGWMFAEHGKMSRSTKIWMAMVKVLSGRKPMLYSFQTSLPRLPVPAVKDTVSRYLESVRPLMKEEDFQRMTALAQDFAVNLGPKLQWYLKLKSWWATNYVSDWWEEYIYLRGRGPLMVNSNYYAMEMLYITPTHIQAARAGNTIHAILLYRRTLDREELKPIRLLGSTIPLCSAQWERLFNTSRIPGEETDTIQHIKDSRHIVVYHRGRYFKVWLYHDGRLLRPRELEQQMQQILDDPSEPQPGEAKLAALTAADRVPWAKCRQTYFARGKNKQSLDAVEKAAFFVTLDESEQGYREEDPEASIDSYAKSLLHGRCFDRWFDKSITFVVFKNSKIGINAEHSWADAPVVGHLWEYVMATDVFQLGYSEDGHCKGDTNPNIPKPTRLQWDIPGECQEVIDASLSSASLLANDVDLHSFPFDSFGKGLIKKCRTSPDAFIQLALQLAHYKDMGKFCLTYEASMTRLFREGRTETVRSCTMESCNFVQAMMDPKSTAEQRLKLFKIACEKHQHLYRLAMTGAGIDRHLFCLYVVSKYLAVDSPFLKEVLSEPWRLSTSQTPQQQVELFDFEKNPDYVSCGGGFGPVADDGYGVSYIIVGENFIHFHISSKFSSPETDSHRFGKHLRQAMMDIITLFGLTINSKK
# [7] = molecular target: T4, Carnitine O-palmitoyltransferase 2, mitochondrial (Homo sapiens, UniProt P23786); test: (§2) SUPPLEMENTARY: Inhibition of Carnitine palmitoyltransferase 2
# T4 sequence (P23786 whole entry): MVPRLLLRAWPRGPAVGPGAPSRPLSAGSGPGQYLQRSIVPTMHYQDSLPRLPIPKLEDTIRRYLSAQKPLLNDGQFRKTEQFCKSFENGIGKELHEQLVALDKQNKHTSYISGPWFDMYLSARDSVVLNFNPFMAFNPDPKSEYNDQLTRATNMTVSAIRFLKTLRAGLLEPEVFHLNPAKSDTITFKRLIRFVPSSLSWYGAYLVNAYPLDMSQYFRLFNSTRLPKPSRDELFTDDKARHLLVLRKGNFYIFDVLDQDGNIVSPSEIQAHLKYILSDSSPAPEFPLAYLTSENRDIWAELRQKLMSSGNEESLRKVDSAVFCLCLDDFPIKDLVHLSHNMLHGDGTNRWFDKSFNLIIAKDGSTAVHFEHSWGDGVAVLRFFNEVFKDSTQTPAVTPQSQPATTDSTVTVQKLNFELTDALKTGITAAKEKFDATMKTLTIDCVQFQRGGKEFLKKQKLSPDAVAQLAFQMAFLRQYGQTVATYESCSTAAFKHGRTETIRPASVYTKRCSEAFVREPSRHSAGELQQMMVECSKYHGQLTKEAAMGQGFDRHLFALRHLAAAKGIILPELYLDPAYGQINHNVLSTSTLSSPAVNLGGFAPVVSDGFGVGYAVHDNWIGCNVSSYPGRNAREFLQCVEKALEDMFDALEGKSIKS
# [8] = molecular target: T5, Carnitine O-palmitoyltransferase 2, mitochondrial (Rattus norvegicus, UniProt P18886); test: as §2
# T5 sequence (P18886 whole entry): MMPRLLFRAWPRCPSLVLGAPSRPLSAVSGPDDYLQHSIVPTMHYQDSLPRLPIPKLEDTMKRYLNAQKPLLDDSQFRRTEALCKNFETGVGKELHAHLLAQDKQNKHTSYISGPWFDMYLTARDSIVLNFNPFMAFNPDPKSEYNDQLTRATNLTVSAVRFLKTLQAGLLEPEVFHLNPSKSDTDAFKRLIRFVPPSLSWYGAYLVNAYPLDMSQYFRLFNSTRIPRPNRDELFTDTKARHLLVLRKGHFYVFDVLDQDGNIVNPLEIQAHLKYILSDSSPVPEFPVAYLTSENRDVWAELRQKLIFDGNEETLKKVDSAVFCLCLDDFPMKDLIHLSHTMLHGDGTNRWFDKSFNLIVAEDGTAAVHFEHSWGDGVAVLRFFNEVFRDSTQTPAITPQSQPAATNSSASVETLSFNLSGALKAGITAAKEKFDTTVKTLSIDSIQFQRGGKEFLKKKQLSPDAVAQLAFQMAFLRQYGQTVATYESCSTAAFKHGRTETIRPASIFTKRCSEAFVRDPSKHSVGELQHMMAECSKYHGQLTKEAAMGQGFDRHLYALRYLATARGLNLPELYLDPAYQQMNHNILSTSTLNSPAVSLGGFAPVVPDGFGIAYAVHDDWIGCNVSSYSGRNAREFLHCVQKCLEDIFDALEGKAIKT
SMILES,logD [1],IC50 [2] [µM],solubility kinetic [3] [µg/mL],Papp [4] [×10⁻⁶ cm/s],IC50 [5] [µM],IC50 [6] [µM],IC50 [7] [µM],IC50 [8] [µM]
O=C1CN(c2cccc(-c3nc([C@H]4CCCCN4C(=O)COc4ccccc4)no3)c2)C(=O)N1,2.62,> 100,127,3.43,0.0651,0.102,10.3,58.7
Cc1ncc(-c2noc([C@H]3CCCCN3C(=O)COc3ccccc3)n2)c(=O)[nH]1,1.14,> 100,> 505,3.03,0.14,1.56,> 100,> 100
O=C1CN(c2cccc(-c3n[nH]c([C@H]4CCCCN4C(=O)COc4ccccc4)n3)c2)C(=O)N1,2.16,61.8,54,1.92,0.0968,0.15,23.5,56.9
COc1ccc(Cl)cc1S(=O)(=O)N1CCc2c(C)cc(C(=O)Nc3ccc(C(=O)O)c(Cl)c3)cc21,0.66,3.53,311,1.52,0.0661,0.157,0.591,0.967
O=C(COc1ccccc1)N1CCCC[C@@H]1c1noc(C2CCCC2)n1,3.08,> 100,20,4.38,0.181,0.106,> 100,> 100
CC(=O)c1ccc(-c2nc([C@H]3CCCCN3C(=O)COc3ccccc3)no2)cc1,3.25,> 100,6,1.54,0.0514,0.0304,4.77,> 100
O=C(O)c1ccc(NC(=O)c2ccc3c(c2)N(Cc2cccc(Cl)c2)C(=O)CS3(=O)=O)cc1,0.47,5.17,26,1.05,0.229,0.184,68.5,> 100
COc1ccc(Cl)cc1S(=O)(=O)N(C)c1cc(C(=O)Nc2nc(CC(=O)O)cs2)cc2c1OCO2,-0.12,1.16,399,2.43,0.0515,0.0625,28.4,67.5
O=C(Nc1ccc(-c2nnn[nH]2)cc1)c1nn(Cc2ccc(OC(F)F)cc2)c2ccc(F)cc12,> 3,26.8,1,0.46,0.21,2.87,> 100,> 100
O=C(O)Cc1csc(NC(=O)c2ccc3c(c2)N(S(=O)(=O)c2cccc(Cl)c2)CC3)n1,0.34,0.601,260,2.91,0.0407,0.0258,> 100,> 100
